Measured values: patent US20250140406A1, “CLASSIFYING TUMORS AND PREDICTING RESPONSIVENESS” (Oncocyte Corporation, priority 2022, published 2025)
Like-named read-outs stand apart in the source and are kept apart here. Square brackets hold non-standard residues; d marks the D form. Peptide text beside a SMILES is read from it. * marks the point of attachment. dPhe(4-NHCONH2) = NC(=O)Nc1ccc(C[C@@H](N)C(=O)O)cc1; Dihydroorotyl(S) = O=C1C[C@@H](C(=O)*)NC(=O)N1; dPhe(4-Cl) = N[C@H](Cc1ccc(Cl)cc1)C(=O)O; Phe(4-NH2) = Nc1ccc(C[C@H](N)C(=O)O)cc1; d2Nal = N[C@H](Cc1ccc2ccccc2c1)C(=O)O; Lys(iPr) = CC(C)NCCCC[C@H](N)C(=O)O; dCit = NC(=O)NCCC[C@@H](N)C(=O)O; d3Pal = N[C@H](Cc1cccnc1)C(=O)O

Legend:
[1] = tested on: cancer cell lines, DetermaIO classes; assay: Association of PRISM compound sensitivity with DetermaIO (DTIO) cell line classes; assay type: cell-based
[2] = tested on: cancer cell lines classified IM, MSL, M; assay: PRISM screen compound sensitivity correlated with IM, MSL and M subtype of cell lines (101 gene signature); assay type: cell-based
[3] = correlation of PRISM compound sensitivity with DTIO, test cell set
[4] = correlation of PRISM compound sensitivity with DTIO, training cell set
[5] = correlation of PRISM compound sensitivity with IM subtype correlation, test cell set (188 cell lines)
[6] = correlation of PRISM compound sensitivity with M subtype correlation, test cell set (188 cell lines)
[7] = correlation of PRISM compound sensitivity with MSL subtype correlation, test cell set (188 cell lines)
[8] = subtype (IM, MSL or M) with which compound sensitivity is negatively correlated, training cell set (371 cell lines), 101 gene signature
[9] = correlation of PRISM compound sensitivity with DTIO (DetermaIO), test cell set (188 cell lines)
[10] = correlation of PRISM compound sensitivity with DTIO (DetermaIO), training cell set (371 cell lines)
[11] = subtype (IM, MSL or M) assigned to the compound by negative correlation of PRISM sensitivity with subtype, training cell set (371 cell lines), 101 gene signature
[12] = correlation of PRISM compound sensitivity with IM subtype correlation, test cell set
[13] = correlation of PRISM compound sensitivity with M subtype correlation, test cell set
[14] = correlation of PRISM compound sensitivity with MSL subtype correlation, test cell set
[15] = subtype (IM, MSL or M) with which PRISM compound sensitivity is negatively correlated, training cell set, 101 gene signature

Row | Structure (SMILES) | DTIO Corr test [1, 3] | DTIO Corr train [1, 4] | IM Corr test [2, 5] | M Corr test [2, 6] | MSL Corr test [2, 7] | IM Corr test [2, 12] | M Corr test [2, 13] | MSL Corr test [2, 14] | also measured
1 | CC1(C)[C@@H](O[C@H]2O[C@H](C(=O)O)[C@@H](O)[C@H](O)[C@H]2O[C@@H]2O[C@H](C(=O)O)[C@@H](O)[C@H](O)[C@H]2O)CC[C@]2(C)[C@H]3C(=O)C=C4[C@@H]5C[C@@](C)(C(=O)O)CC[C@]5(C)CC[C@@]4(C)[C@]3(C)CC[C@@H]12 [ammonium-glycyrrhizinate] | −0.07896 | −0.06692 | −0.02605 | 0.0501 | 0.0971 | – | – | – | –
2 | CC(=O)OC[C@]12CCC(C)=C[C@H]1O[C@@H]1[C@H](O)[C@@H](OC(C)=O)[C@@]2(C)[C@]12CO2 [anguidine] | – | – | – | – | – | – | – | – | DTIO Corr test [1]: −0.124; DTIO Corr train [1]: −0.1638; IM Corr test [2]: −0.1066; M Corr test [2]: 0.09713; MSL Corr test [2]: 0.2083
3 | O=C1C(=O)N(Cc2ccc(Cl)c(Cl)c2)c2ccccc21 [apoptosis-activator-II] | 0.07557 | 0.02708 | 0.1037 | −0.1455 | −0.1886 | – | – | – | TNBCType train [2, 8]: MSL
4 | COc1ccc(C2CNC(=O)NC2)cc1O[C@H]1C[C@@H]2CC[C@H]1C2 [atizoram] | – | – | −0.0276 | 0.01206 | −0.09365 | – | – | – | DTIO Corr test [1, 9]: 0.000749; DTIO Corr train [1, 10]: −0.04268; TNBCType train [2, 11]: MSL
5 | Cc1occc(=O)c1[O-].Cc1occc(=O)c1[O-].[O]=[V+2] [bis(maltolato)oxo-vanadium(IV)] | 0.09031 | 0.1485 | 0.04745 | −0.1743 | −0.04621 | – | – | – | DTIO Corr test ([1]; correlation of compound sensitivity with DetermaIO (DTIO), test set): 0.09031; DTIO Corr train ([1]; correlation of compound sensitivity with DetermaIO (DTIO), training set): 0.1485
6 | CCCC[C@H](NC(C)=O)C(=O)N[C@H]1CC(=O)NCCCC[C@@H](C(=O)O)NC(=O)[C@H](Cc2c[nH]c3ccccc23)NC(=O)[C@H](CCCN=C(N)N)NC(=O)[C@@H](Cc2ccccc2)NC(=O)[C@H](Cc2cnc[nH]2)NC1=O [bremelanotide] | −0.06366 | −0.07952 | −0.04735 | 0.07264 | −0.04913 | – | – | – | –
7 | CCCCC1OC(=O)c2ccccc21 (centres unmarked) [butylphthalide] | −0.1082 | 0.01178 | −0.03693 | −0.03289 | −0.02003 | – | – | – | TNBCType train [2, 8]: MSL
8 | COc1ccc(Nc2nccc(NCCO)n2)cc1 [cardiogenol-c] | – | – | −0.05174 | −0.01984 | −0.00925 | – | – | – | DTIO Corr test ([1]; correlation of PRISM compound sensitivity with DTIO, test cell set (188 cell lines)): −0.07629; DTIO Corr train ([1]; correlation of PRISM compound sensitivity with DTIO, training cell set (371 cell lines)): 0.01043; TNBCType train ([2]; subtype (IM, MSL or M) the PRISM compound sensitivity is associated with, training cell set (371 cell lines), 101 gene signature): MSL
9 | CO/N=C(\C(=O)N[C@@H]1C(=O)N2C(C(=O)OCOC(=O)C(C)(C)C)=C(C)CS[C@H]12)c1csc(N)n1 [cefetamet-pivoxil] | −0.06679 | −0.1217 | – | – | – | −0.01246 | 0.001642 | −0.041 | –
10 | CC(=O)N[C@H](Cc1ccc2ccccc2c1)C(=O)N[C@H](Cc1ccc(Cl)cc1)C(=O)N[C@H](Cc1cccnc1)C(=O)N[C@@H](CO)C(=O)N[C@@H](Cc1ccc(O)cc1)C(=O)N[C@H](CCCNC(N)=O)C(=O)N[C@@H](CC(C)C)C(=O)N[C@@H](CCCNC(=N)N)C(=O)N1CCC[C@H]1C(=O)N[C@H](C)C(N)=O [cetrorelix] (Ac-[d2Nal][dPhe(4-Cl)][d3Pal]SY[dCit]LRP[dA]-NH2) | – | – | −0.1828 | −0.05533 | −0.07051 | – | – | – | DTIO Corr test [1, 9]: −0.1344; DTIO Corr train [1, 10]: 0.03723; TNBCType train [2, 11]: MSL
11 | COc1cc(-c2ccc(N=Nc3ccc4c(S(=O)(=O)[O-])cc(S(=O)(=O)[O-])c(N)c4c3O)c(OC)c2)ccc1N=Nc1ccc2c(S(=O)(=O)[O-])cc(S(=O)(=O)[O-])c(N)c2c1O.[Na+].[Na+].[Na+].[Na+] [chicago-sky-blue-6b] | – | – | −0.1701 | 0.1599 | 0.184 | – | – | – | DTIO Corr test [1, 9]: −0.07521; DTIO Corr train [1, 10]: −0.1611
12 | CCS(=O)(=O)N(C)[C@H]1c2cc(C#N)ccc2OC(C)(C)[C@@H]1O [chromanol-293B-(−)-[3R,4S]] | −0.09957 | −0.08029 | – | – | – | −0.09685 | 0.08774 | 0.1021 | –
13 | Cc1c(Cl)cccc1Nc1ncccc1C(=O)O.NCCCC[C@H](N)C(=O)O [clonixin-lysinate] | – | – | – | – | – | – | – | – | DTIO Corr test [1]: −0.01494; DTIO Corr train [1]: −0.00484; IM Corr test [2]: −0.06378; M Corr test [2]: 0.004709; MSL Corr test [2]: −0.03679; TNBCType train [2]: MSL
14 | CN(CCOP(=O)(O)O)C(=N)N [creatinol-phosphate] | 0.02757 | −0.08518 | – | – | – | −0.00785 | 0.001052 | −0.06276 | –
15 | CN[C@@H](C)[C@H]1[C@H](O)C[C@@]2(C)[C@@H]3CC[C@H]4C(C)(C)[C@@H](NC)CC[C@@]45C[C@@]35CC[C@]12C [cyclovirobuxin-d] | 0.02667 | 0.06721 | – | – | – | 0.03318 | −0.04158 | 0.04619 | –
16 | N#CCNC(=O)c1ccc(-c2ccnc(Nc3ccc(N4CCOCC4)cc3)n2)cc1 [cyt387] | – | – | 0.06763 | −0.1142 | −0.1416 | – | – | – | DTIO Corr test [1, 9]: 0.000569; DTIO Corr train [1, 10]: −0.03421; TNBCType train [2, 11]: MSL
17 | CC(=O)N[C@H](Cc1ccc2ccccc2c1)C(=O)N[C@H](Cc1ccc(Cl)cc1)C(=O)N[C@H](Cc1cccnc1)C(=O)N[C@@H](CO)C(=O)N[C@@H](Cc1ccc(NC(=O)[C@@H]2CC(=O)NC(=O)N2)cc1)C(=O)N[C@H](Cc1ccc(NC(N)=O)cc1)C(=O)N[C@@H](CC(C)C)C(=O)N[C@@H](CCCCNC(C)C)C(=O)N1CCC[C@H]1C(=O)N[C@H](C)C(N)=O [degarelix] (Ac-[d2Nal][dPhe(4-Cl)][d3Pal]S[Phe(4-NH2)](Dihydroorotyl(S))[dPhe(4-NHCONH2)]L[Lys(iPr)]P[dA]-NH2) | −0.01776 | 0.01996 | 0.000275 | −0.03554 | −0.05421 | – | – | – | TNBCType train [2, 8]: MSL
18 | CCN(CC)C(=S)[S-].O.O.O.[Na+] [ditiocarb-sodium-trihydrate] | −0.1096 | −0.01519 | – | – | – | −0.07988 | 0.03103 | −0.01951 | TNBCType train [2, 15]: MSL
19 | C[C@]12N[C@H](Cc3ccccc31)c1ccccc12 [dizocilpine-(−)] | −0.06945 | 0.02729 | – | – | – | −0.0703 | −0.00928 | −0.09183 | TNBCType train [2, 15]: MSL
20 | CC[C@H](C)[C@@H]([C@@H](CC(=O)N1CCC[C@H]1[C@H](OC)[C@@H](C)C(=O)N[C@@H](Cc1ccccc1)c1nccs1)OC)N(C)C(=O)[C@@H](NC(=O)[C@H](C(C)C)N(C)C)C(C)C [dolastatin-10] | – | – | −0.05477 | 0.003299 | −0.00011 | – | – | – | DTIO Corr test [1, 9]: −0.08086; DTIO Corr train [1, 10]: −0.07579; TNBCType train [2, 11]: MSL
